This is an account of results in patent US20130281413A1, “Salicylate Conjugates Useful For Treating Metabolic Disorders” (Genmedica Therapeutics SL, priority 2008, published 2013).

The subject of data set [1] is β-cells. Nature of the data set: In vivo beta cell protection model (alloxan), FIG. 6. Also noted: species or system cd-1 mice. To be noted: for effect of alloxan on β-cells: lysine salts, single i.p. administration 1 hour before alloxan 200 mg/kg. Here is the method:
Beta-cell destruction was induced in cd-1 mice after 3 hours of fasting by a single intraperitoneal injection of a freshly prepared solution of alloxan 200 mg/kg (Sigma-Aldrich, San Luis, Mo.) that was dissolved in NaCl 0.9%. Single intraperitoneal drug administration was 1 hour before the alloxan administration. Animals received the different drugs dissolved in PBS pH 7.4, and the animals that not received any drug were injected with the vehicle, in this case PBS pH 7.4. At the end of the treatment, at day 4, animals were killed and the plasma collected and kept at −20° C. until used.
The circulating glucose concentration was determined by a rapid glucose analyzer (Accu-Chek Aviva; Roche). Plasma triglycerides and non esterified fatty acids were determined with standard colorimetric methods (Biosystems, Barcelona, Spain, and Wako Chemicals, Neuss, Germany, respectively). Plasma insulin concentration was determined by enzyme-linked immunosorbent assay method (CrystalChem, Downers Grove, Ill.).

Data set [2] concerns Zucker fa/fa rats or ob/ob mice. To be noted: 120 mg/kg/day subcutaneous infusion, 3-4 weeks; cited from earlier work.
Data set [3] deals with β-cells. Nature of the data set: Protection of β-cell failure and prevention of hyperglycemia in streptozotocin treated rats. The data set is classed as in vivo.
Data set [4] deals with β-cells. Nature of the data set: Preserving β-cell function of mice challenged by one shot of streptozotocin. Format: in vivo. Particulars: oral or intraperitoneal, prior and during 5 days following streptozotocin 45 mg/kg i.p. On the procedure: Further, compounds of the present invention, such as Salnacedin, are tested for their efficiency at preserving β-cell function of mice challenged by one shot of streptozotocin (45 mg/kg i.p.).

Data set [5] concerns streptozotocin-induced diabetic mice. Nature of the data set: Type 1 diabetic model in mice (streptozotocin 120 mg/kg i.p.). Format: in vivo. Particulars: 4 weeks. Here is the method: Mice induced by streptozotocin injection (120 mg/kg i.p.) are treated for 4 weeks with 250 mg/kg/day (oral or i.p.) of a compound of the present invention, such as […]. At the end of the 4 week treatment, fasting glucose, fructosamine, triglycerides and cholesterol are measured.

The test system of the next data set is ob/ob and db/db mice. The data set can be described thus: Restoration of insulin sensibility in ob/ob and db/db mice. The data set is classed as in vivo. On the procedure:
Eight week old ob/ob and db/db mice are treated for 3 to 4 weeks with a daily dose of 250 mg/kg of a compound of the present invention, such as […], by oral gavage or with drug mix with food or subcutaneously. […] Additionally, the levels of insulin are measured 15 min following the glucose loading to determine the capacity of the β-cells to secrete insulin.

For data set [6], the system named is Zucker diabetic fatty (ZDF) rats. Nature of the data set: Restoration of insulin sensitivity in Zucker diabetic fatty (ZDF) rats. Format: in vivo. Particulars: 250 mg/kg oral daily. Here is the method: To assess whether conjugates comprising an antioxidant agent and an inflammatory agent would prevent glucose toxicity and progression of diabetes mellitus associated with β-cell failure overtime, we assessed whether compounds of Formula (I), including salnacedin, would alter the development of the disease in this Type 2 diabetic animal model.
Zucker diabetic rats from 6 to 12 weeks of age are treated daily with an oral dose of 250 mg/kg of a compound of the present invention, such as salnacedin.

For data set [7], the system named is animal models of diabetes. Nature of the data set: Summary of effects in different animal models of diabetes. The data set is classed as in vivo.
The test system of a further data set is human diabetic patients. To be noted: 4.5 g/day; cited from earlier work.
The subject of another data set is IKKβ. Particulars: diabetic animals; cited from earlier work.
The mark [8] stands for this setting: 250 mg/kg/day oral or i.p., vs control group.

As for `CC(=O)NC(CSC(=O)c1ccccc1O)C(=O)O` (stereo not shown) [GMC-1.3a, salicylic acid-(L) N-acetyl cysteine], the “effect of alloxan on β-cells” value in the data set with β-cells [1] is “reduce the effect of alloxan on β-cells”.

`CC(=O)N[C@@H](CSC(=O)c1cc(-c2ccc(F)cc2F)ccc1O)C(=O)O` [GMC-1.3b, diflunisal-(L) N-acetyl cysteine]: the “effect of alloxan on β-cells” value with β-cells [1] is reported as “reduce the effect of alloxan on β-cells”.

As for `O=C(O)c1ccccc1O` [Salicylate], in data set [2], the fasting blood glucose entry is “reduction in fasting blood glucose” and the glucose tolerance result was “glucose tolerance improvement”.

Regarding `CC(=O)N[C@@H](CSC(=O)c1ccccc1O)C(=O)O` [Example 1, (R)-2-acetamido-3-(2-hydroxybenzoylthio)propanoic acid], the blood glucose level result in the data set on β-cells [3] (pretreated rats vs control group, associated with preserved capacity of β-cell to secrete insulin) is given as “lower than the control group”. Besides, the “β-cell preservation and development of hyperglycemia” value in the data set on β-cells [3] (rats, ~250 mg/kg orally and/or intraperitoneally prior to streptozotocin 45 mg/kg i.p., followed by 4 additional treatment days) is “preserve β-cells, reducing the development of hyperglycemia”. The “levels of 8-hydroxy-deoxyguanosine (8 OhdG) and malondialdehyde+4-hydroxy-2-nonenal (4HNE)” value in the data set with β-cells [3] (streptozotocin model, markers of oxidative stress and lipid peroxidation in the blood) is “reduce”. Besides, the “β-cell protection from oxidative stress and development of hyperglycemia over time” value with β-cells [4] was “protects β-cells from oxidative stress and reduces the development of hyperglycemia over time compared to control”. For the same molecule, in data set [5] (setting [8]), the cholesterol result was “reduced in comparison to control group”, the fasting glucose entry is listed as “reduced in comparison to control group”, the fructosamine result was “reduced in comparison to control group” and the triglycerides result is on record as “reduced in comparison to control group”. Also, the “reduction in plasmatic parameters compared with a salicylate or an antioxidant alone” value in data set [5] (250 mg/kg/day, vs salicylic acid alone or N-acetylcysteine alone) is listed as “more pronounced”. Besides, in the data set on ob/ob and db/db mice (250 mg/kg daily, 3 to 4 weeks, oral gavage, in food or subcutaneously, vs control or salicylate/antioxidant alone), the “fasting blood glucose values” is listed as “reduced compared to the control group”. In the data set on ob/ob and db/db mice (evidenced by a sustained and pronounced glucose lowering effect), the insulin sensitivity result is listed as “improve insulin sensitivity”. Moreover, the “capacity of the β-cells to secrete insulin” value in the data set on ob/ob and db/db mice (insulin measured 15 min following the glucose loading, vs control) is “greater”. In the data set on ob/ob and db/db mice (level of associated biomarkers), the “oxidative stress and lipid peroxidation (8 OhdG, malondialdehyde, 4HNE)” value was “a reduction in oxidative stress and lipid peroxidation”. Moreover, the “levels of glutathione (GSH)” value with ob/ob and db/db mice (liver and kidney) is recorded as “restored”. The “inflammatory cytokines TNFα and IL-6” value with ob/ob and db/db mice (mouse, in vivo) was “reduced”. In the data set with ob/ob and db/db mice (vs non treated animal), the “glucose tolerance test (OGTT or IPTT): elevation of glucose levels” value was “a reduction in the elevation of glucose levels during the test”. In [6] (6 weeks, vs control group), the Hb1Ac entry is on record as “reduced in comparison to the control group”, the cholesterol result is “reduced in comparison to the control group”, the fasting glucose result is reported as “reduced in comparison to the control group” and the fructosamine entry is given as “reduced in comparison to the control group”. The triglycerides result in data set [6] (6 weeks, vs control group) is “reduced in comparison to the control group”. In data set [6] (from 6 to 12 weeks of age), the glucose tolerance test entry was “improves the glucose tolerance test”, the “insulin secretion from β-cells” value is “preserves insulin secretion from β-cells” and the worsening of hyperglycemia entry is on record as “partially prevents the worsening of hyperglycemia”. The insulin levels result with β-cells [1] (alloxan-treated animals, indicates pancreatic beta cell protection) is recorded as “preservation of insulin levels”. Besides, in data set [7], the “hypolipidemic, anti-diabetic and antioxidant effects” value was “strong hypolipidemic and anti-diabetic effects as well as antioxidant properties”.

On to `O=C(Oc1ccccc1C(=O)O)c1ccccc1O` [salsalate], for which, in the data set on human diabetic patients, the “effects in human diabetic patients” value is given as “Beneficial effects” and the “side effects, such as tinnitus, enhanced by” value is reported as 66%. In the data set with IKKβ, the IKKβ activity entry is recorded as “decrease in IKKβ activity” and the insulin sensitivity result is “improvement in insulin sensitivity”.
